Where two headings read alike, the source gives them in different places. Starred links: 1 amine or outer side, 2 acyl side, 3 side chain; linkers in the order of their positions; H or OH if unused. Non-standard residues stand in square brackets, D forms with d. Residues, ends and D or L forms follow the SMILES beside them. Groups on a side chain read outwards from the residue. *: point of attachment. C20 diacid = O=C(O)CCCCCCCCCCCCCCCCCCC(=O)*; Pro(cis-4-F) = O=C(O)[C@@H]1C[C@H](F)CN1; γGlu = O=C(O)[C@H](CCC(=O)[*:2])N[*:1]; NMeI = CC[C@H](C)[C@H](NC)C(=O)O; Nle = CCCC[C@H](N)C(=O)O; Ac5c = NC1(C(=O)O)CCCC1; AEEA = NCCOCCOCC(=O)O; Aib = CC(C)(N)C(=O)O
Legend:
hCRHR2 = biological target: T1, hCRHR2 (Homo sapiens, UniProt Q13324); experiment: HTRF cAMP assay, determination of hCRHR2 potency (peptide libraries 5 conc., purified peptides 11 conc.); format: cell-based
T1 sequence (Q13324 1-411): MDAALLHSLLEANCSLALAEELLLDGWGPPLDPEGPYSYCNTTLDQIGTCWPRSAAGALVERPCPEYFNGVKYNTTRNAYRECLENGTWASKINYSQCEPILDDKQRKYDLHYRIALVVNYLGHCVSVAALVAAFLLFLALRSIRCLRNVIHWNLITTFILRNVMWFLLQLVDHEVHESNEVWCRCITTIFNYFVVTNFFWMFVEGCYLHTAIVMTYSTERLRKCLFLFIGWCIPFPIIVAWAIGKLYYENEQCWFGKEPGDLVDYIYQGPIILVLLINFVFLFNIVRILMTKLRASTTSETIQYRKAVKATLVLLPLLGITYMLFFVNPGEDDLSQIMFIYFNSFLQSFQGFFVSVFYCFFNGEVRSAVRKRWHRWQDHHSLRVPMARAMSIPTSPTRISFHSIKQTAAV
Method in brief: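 Frozen stocks of hCRHR2-expressing CHO-K1 cells, thawed just before testing, received peptide agonists in suspension; cAMP quantified by competitive HTRF immunoassay, with curves fitted by nonlinear regression (variable slope) for EC50.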

hCRHR1 = biological target: T2, hCRHR1 (Homo sapiens, UniProt P34998); experiment: HTRF cAMP assay, determination of hCRHR1 potency (peptide libraries 5 conc., purified peptides 11 conc.); format: cell-based
T2 sequence (P34998 24-415): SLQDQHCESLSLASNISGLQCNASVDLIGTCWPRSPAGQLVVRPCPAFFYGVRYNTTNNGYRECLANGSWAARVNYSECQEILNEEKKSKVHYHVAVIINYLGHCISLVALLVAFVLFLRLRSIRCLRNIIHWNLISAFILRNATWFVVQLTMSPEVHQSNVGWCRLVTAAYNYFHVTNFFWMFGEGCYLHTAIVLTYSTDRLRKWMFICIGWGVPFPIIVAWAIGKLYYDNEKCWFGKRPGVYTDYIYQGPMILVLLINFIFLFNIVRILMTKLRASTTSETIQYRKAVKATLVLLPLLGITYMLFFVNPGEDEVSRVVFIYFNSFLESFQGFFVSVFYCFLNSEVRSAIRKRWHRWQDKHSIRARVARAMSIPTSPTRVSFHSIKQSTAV
Method in brief: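 Cellular cAMP was read by time-resolved FRET between d2-labelled cAMP and cryptate anti-cAMP antibody. The cells were freshly thawed suspension CHO-K1 cells stably expressing human CRHR1.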

[1] = library peptides, matched molecular pairs L vs Nle in position X^38, read-out: Potency hCRHR2 pEC50 (converted)
[2] = library peptides, matched molecular pairs L vs Nle in position X^38, read-out: Potency hCRHR1 pEC50 (converted)

CCCC[C@H](NC(=O)[C@@H](NC(=O)[C@H](CCC(=O)O)NC(=O)[C@H](C)NC(=O)[C@H](CC(N)=O)NC(=O)C(C)(C)NC(=O)[C@H](CCCCNC(=O)COCCOCCNC(=O)COCCOCCNC(=O)CC[C@H](NC(=O)CC[C@H](NC(=O)CCCCCCCCCCCCCCCCCCC(=O)O)C(=O)O)C(=O)O)NC(=O)[C@H](C)NC(=O)[C@H](CCC(N)=O)NC(=O)[C@H](CCC(=O)O)NC(=O)[C@H](CCCNC(=N)N)NC(=O)[C@H](C)NC(=O)[C@H](C)NC(=O)[C@H](CCCNC(=N)N)NC(=O)[C@H](C)NC(=O)[C@H](CCCNC(=N)N)NC(=O)[C@H](C)NC(=O)[C@H](CCC(N)=O)NC(=O)[C@@H](NC(=O)[C@H](CC(C)C)NC(=O)[C@H](CC(C)C)NC(=O)[C@@H](NC(=O)[C@H](CCC(N)=O)NC(=O)[C@H](CC(C)C)NC(=O)[C@H](CC(C)C)NC(=O)CNC(=O)[C@@H](NC(=O)[C@@H]1CCCN1C(=O)[C@@H](NC(=O)[C@H](CC(=O)O)NC(=O)[C@H](CC(C)C)NC(=O)[C@H](CO)NC(=O)[C@H](CC(C)C)NC(=O)[C@@H](NC(=O)[C@@H](NC)[C@@H](C)CC)C(C)C)C(C)C)[C@@H](C)CC)[C@@H](C)CC)C(C)C)[C@@H](C)CC)C(=O)N[C@@H](C)C(=O)N[C@@H](CCC(=O)O)C(=O)N[C@H](C(N)=O)C(C)C [compound 138] (H-[NMeI]VLSLDVPIGLLQILLVQARARAAREQAK([AEEA-AEEA-γGlu-γGlu-C20 diacid])[Aib]NAEI[Nle]AEV-NH2)
EC50 (hCRHR2; Table 4, library peptides having X^38 = Nle, read-out: hCRHR2 pEC50 (converted)): 0.0158 nM | EC50 (hCRHR1; Table 4, library peptides having X^38 = Nle, read-out: hCRHR1 pEC50 (converted)): 1000 nM

CCCC[C@H](NC(=O)[C@@H](NC(=O)[C@H](CCC(=O)O)NC(=O)[C@H](C)NC(=O)[C@H](CC(N)=O)NC(=O)[C@@H](NC(=O)[C@H](CCCCNC(=O)COCCOCCNC(=O)COCCOCCNC(=O)CC[C@H](NC(=O)CC[C@H](NC(=O)CCCCCCCCCCCCCCCCCCC(=O)O)C(=O)O)C(=O)O)NC(=O)[C@H](C)NC(=O)[C@H](CCCNC(=N)N)NC(=O)[C@H](CCC(=O)O)NC(=O)[C@H](CCCNC(=N)N)NC(=O)[C@H](C)NC(=O)[C@H](C)NC(=O)[C@H](CCC(N)=O)NC(=O)[C@H](C)NC(=O)[C@H](CCCNC(=N)N)NC(=O)[C@H](C)NC(=O)[C@H](CCC(N)=O)NC(=O)[C@H](CCC(=O)O)NC(=O)[C@H](CC(C)C)NC(=O)[C@H](CC(C)C)NC(=O)[C@@H](NC(=O)[C@H](CCC(N)=O)NC(=O)[C@H](CC(C)C)NC(=O)[C@H](CC(C)C)NC(=O)CNC(=O)[C@@H](NC(=O)[C@@H]1CCCN1C(=O)[C@@H](NC(=O)[C@H](CC(=O)O)NC(=O)[C@H](CC(C)C)NC(=O)[C@H](CO)NC(=O)[C@H](CC(C)C)NC(=O)[C@@H](NC(=O)[C@@H](N)[C@@H](C)CC)C(C)C)C(C)C)[C@@H](C)CC)[C@@H](C)CC)[C@@H](C)O)[C@@H](C)CC)C(=O)N[C@@H](C)C(=O)N[C@@H](CCC(=O)O)C(=O)N[C@H](C(N)=O)C(C)C [compound 49] (H-IVLSLDVPIGLLQILLEQARAQAARERAK([AEEA-AEEA-γGlu-γGlu-C20 diacid])TNAEI[Nle]AEV-NH2)
EC50 (hCRHR2; [1]): 0.126 nM | EC50 (hCRHR1; [2]): 3160 nM

CC[C@H](C)[C@H](N)C(=O)N[C@H](C(=O)N[C@@H](CC(C)C)C(=O)N[C@@H](CO)C(=O)N[C@@H](CC(C)C)C(=O)N[C@@H](CC(=O)O)C(=O)NC1(C(=O)N2CCC[C@H]2C(=O)N[C@H](C(=O)NCC(=O)N[C@@H](CC(C)C)C(=O)N[C@@H](CC(C)C)C(=O)N[C@@H](CCC(N)=O)C(=O)N[C@H](C(=O)N[C@@H](CC(C)C)C(=O)N[C@@H](CC(C)C)C(=O)N[C@@H](CCC(=O)O)C(=O)N[C@@H](CCC(N)=O)C(=O)N[C@@H](C)C(=O)N[C@@H](CCCNC(=N)N)C(=O)N[C@@H](C)C(=O)N[C@@H](CCCNC(=N)N)C(=O)N[C@@H](CCC(N)=O)C(=O)N[C@@H](C)C(=O)N[C@@H](CCCNC(=N)N)C(=O)N[C@@H](CCC(=O)O)C(=O)N[C@@H](CCC(N)=O)C(=O)N[C@@H](C)C(=O)N[C@@H](CCCCNC(=O)COCCOCCNC(=O)COCCOCCNC(=O)CC[C@H](NC(=O)CC[C@H](NC(=O)CCCCCCCCCCCCCCCCCCC(=O)O)C(=O)O)C(=O)O)C(=O)N[C@H](C(=O)N[C@@H](CC(N)=O)C(=O)N[C@@H](C)C(=O)N[C@@H](CCC(=O)O)C(=O)N[C@H](C(=O)N[C@@H](CC(C)C)C(=O)N[C@@H](C)C(=O)N[C@@H](CCC(=O)O)C(=O)N[C@H](C(N)=O)C(C)C)[C@@H](C)CC)[C@@H](C)O)[C@@H](C)CC)[C@@H](C)CC)CCCC1)C(C)C [compound 78] (H-IVLSLD[Ac5c]PIGLLQILLEQARARQAREQAK([AEEA-AEEA-γGlu-γGlu-C20 diacid])TNAEILAEV-NH2)
EC50 (hCRHR2; [1]): 0.398 nM | EC50 (hCRHR1; [2]): 7.94 nM

CCCC[C@H](NC(=O)[C@@H](NC(=O)[C@H](CCC(=O)O)NC(=O)[C@H](C)NC(=O)[C@H](CC(N)=O)NC(=O)[C@@H](NC(=O)[C@H](CCCCNC(=O)COCCOCCNC(=O)COCCOCCNC(=O)CC[C@H](NC(=O)CC[C@H](NC(=O)CCCCCCCCCCCCCCCCCCC(=O)O)C(=O)O)C(=O)O)NC(=O)[C@H](C)NC(=O)[C@H](CCC(N)=O)NC(=O)[C@H](CCC(=O)O)NC(=O)[C@H](CCCNC(=N)N)NC(=O)[C@H](C)NC(=O)[C@H](CO)NC(=O)[C@H](CCCNC(=N)N)NC(=O)[C@H](C)NC(=O)[C@H](CCCNC(=N)N)NC(=O)[C@H](C)NC(=O)[C@H](CCC(N)=O)NC(=O)[C@H](CCC(=O)O)NC(=O)[C@H](CC(C)C)NC(=O)[C@H](CC(C)C)NC(=O)[C@@H](NC(=O)[C@H](CCC(N)=O)NC(=O)[C@H](CC(C)C)NC(=O)[C@H](CC(C)C)NC(=O)CNC(=O)[C@@H](NC(=O)[C@@H]1CCCN1C(=O)[C@@H](NC(=O)[C@H](CC(=O)O)NC(=O)[C@H](CC(C)C)NC(=O)[C@H](CO)NC(=O)[C@H](CC(C)C)NC(=O)[C@@H](NC(=O)[C@@H](N)[C@@H](C)CC)C(C)C)C(C)C)[C@@H](C)CC)[C@@H](C)CC)[C@@H](C)O)[C@@H](C)CC)C(=O)N[C@@H](C)C(=O)N[C@@H](CCC(=O)O)C(=O)N[C@H](C(N)=O)C(C)C [compound 61] (H-IVLSLDVPIGLLQILLEQARARSAREQAK([AEEA-AEEA-γGlu-γGlu-C20 diacid])TNAEI[Nle]AEV-NH2)
EC50 (hCRHR2; [1]): 0.1 nM | EC50 (hCRHR1; [2]): 1260 nM

CCCC[C@H](NC(=O)[C@@H](NC(=O)[C@H](CCC(=O)O)NC(=O)[C@H](C)NC(=O)[C@H](CC(N)=O)NC(=O)[C@@H](NC(=O)[C@H](CCCCNC(=O)COCCOCCNC(=O)COCCOCCNC(=O)CC[C@H](NC(=O)CC[C@H](NC(=O)CCCCCCCCCCCCCCCCCCC(=O)O)C(=O)O)C(=O)O)NC(=O)[C@H](C)NC(=O)[C@H](CCC(N)=O)NC(=O)[C@H](CCC(=O)O)NC(=O)[C@H](CCCNC(=N)N)NC(=O)[C@H](C)NC(=O)[C@H](C)NC(=O)[C@H](CCCNC(=N)N)NC(=O)[C@H](C)NC(=O)[C@H](CCCNC(=N)N)NC(=O)[C@H](C)NC(=O)[C@H](CCC(N)=O)NC(=O)[C@@H](NC(=O)[C@H](CC(C)C)NC(=O)[C@H](CC(C)C)NC(=O)[C@@H](NC(=O)[C@H](CCC(N)=O)NC(=O)[C@H](CC(C)C)NC(=O)[C@H](CC(C)C)NC(=O)CNC(=O)[C@@H](NC(=O)[C@@H]1C[C@H](F)CN1C(=O)[C@@H](NC(=O)[C@H](CC(=O)O)NC(=O)[C@H](CC(C)C)NC(=O)[C@H](CO)NC(=O)[C@H](CC(C)C)NC(=O)[C@@H](NC(=O)[C@@H](N)[C@@H](C)CC)C(C)C)C(C)C)[C@@H](C)CC)[C@@H](C)CC)[C@@H](C)O)[C@@H](C)O)[C@@H](C)CC)C(=O)N[C@@H](C)C(=O)N[C@@H](CCC(=O)O)C(=O)N[C@H](C(N)=O)C(C)C [compound 81] (H-IVLSLDV[Pro(cis-4-F)]IGLLQILLTQARARAAREQAK([AEEA-AEEA-γGlu-γGlu-C20 diacid])TNAEI[Nle]AEV-NH2)
EC50 (hCRHR2; [1]): 0.2 nM | EC50 (hCRHR1; [2]): 398000 nM

— patent EP4810052A2, “HCRHR2 SELECTIVE POLYPEPTIDES” (Gubra A/S, priority 2023, dated 2026)
